Results on 18 molecules are retold here after ChEMBL document CHEMBL6109046, “Recent advances in developing targeted protein degraders” (Eur J Med Chem, 2025).

Experiment [1] in a line: PROTAC activity at SMARCA2/VHL in human MV4-11 cells assessed as protein degradation incubated for 18 hrs by Western blot analysis. Format: cell-based. The settings on record: MV4-11, 18 h. A general note: Immunoblotting shows a protein as a band on a membrane.
In experiment [2] the target is Protein cereblon/Cyclin-dependent kinase 9 (Homo sapiens, UniProt P50750+Q96SW2). Description: PROTAC activity at CRBN/CDK9 in human MV4-11 cells assessed as induction of CDK9 degradation measured for 3 days by Western blot analysis. In kind it is cell-based.
Sequence of Protein cereblon/Cyclin-dependent kinase 9 (P50750 whole entry): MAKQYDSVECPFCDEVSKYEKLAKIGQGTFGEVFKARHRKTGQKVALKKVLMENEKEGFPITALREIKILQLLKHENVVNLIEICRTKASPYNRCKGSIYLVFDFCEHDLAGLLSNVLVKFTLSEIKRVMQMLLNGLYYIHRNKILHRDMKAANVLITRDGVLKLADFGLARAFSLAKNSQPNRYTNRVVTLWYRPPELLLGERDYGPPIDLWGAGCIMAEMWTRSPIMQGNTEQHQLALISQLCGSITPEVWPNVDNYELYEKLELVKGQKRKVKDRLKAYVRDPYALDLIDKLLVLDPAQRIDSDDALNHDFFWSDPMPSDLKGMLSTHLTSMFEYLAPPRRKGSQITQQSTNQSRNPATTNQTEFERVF
Sequence of Protein cereblon/Cyclin-dependent kinase 9 (Q96SW2 whole entry): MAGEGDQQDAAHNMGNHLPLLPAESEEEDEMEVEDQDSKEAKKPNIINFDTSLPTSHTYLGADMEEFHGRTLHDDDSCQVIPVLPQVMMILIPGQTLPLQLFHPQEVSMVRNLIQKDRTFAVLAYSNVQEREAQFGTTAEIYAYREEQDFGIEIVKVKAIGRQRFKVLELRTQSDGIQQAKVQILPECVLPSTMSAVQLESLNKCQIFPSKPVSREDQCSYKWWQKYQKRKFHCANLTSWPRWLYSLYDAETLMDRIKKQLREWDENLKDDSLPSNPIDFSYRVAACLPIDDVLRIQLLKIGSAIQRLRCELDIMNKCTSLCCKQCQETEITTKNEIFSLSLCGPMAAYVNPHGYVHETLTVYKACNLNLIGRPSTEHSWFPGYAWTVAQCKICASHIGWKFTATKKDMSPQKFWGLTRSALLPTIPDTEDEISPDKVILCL
Experiment [3] concerns the target T1, Protein cereblon/Androgen receptor (Homo sapiens, UniProt P10275+Q96SW2). Description: PROTAC activity at AR/CRBN in human LNCaP cells assessed as protein degradation incubated for 24 hrs by Western blot analysis. Format: cell-based.
A short description of experiment [4]: PROTAC activity at VHL/BRD4 in human HeLa cells assessed as degradation of BRD4 incubated for 16 hrs by Western blot analysis. Format: cell-based.
For experiment [5], the target named is Protein cereblon/Poly [ADP-ribose] polymerase 1 (Homo sapiens, UniProt P09874+Q96SW2). Description: PROTAC activity at CRBN/PARP1 in human MDA-MB-231 cells assessed as degradation of PARP1 measured after 24 hrs by Western blot analysis. In kind it is cell-based.
Sequence of Protein cereblon/Poly [ADP-ribose] polymerase 1 (P09874 whole entry): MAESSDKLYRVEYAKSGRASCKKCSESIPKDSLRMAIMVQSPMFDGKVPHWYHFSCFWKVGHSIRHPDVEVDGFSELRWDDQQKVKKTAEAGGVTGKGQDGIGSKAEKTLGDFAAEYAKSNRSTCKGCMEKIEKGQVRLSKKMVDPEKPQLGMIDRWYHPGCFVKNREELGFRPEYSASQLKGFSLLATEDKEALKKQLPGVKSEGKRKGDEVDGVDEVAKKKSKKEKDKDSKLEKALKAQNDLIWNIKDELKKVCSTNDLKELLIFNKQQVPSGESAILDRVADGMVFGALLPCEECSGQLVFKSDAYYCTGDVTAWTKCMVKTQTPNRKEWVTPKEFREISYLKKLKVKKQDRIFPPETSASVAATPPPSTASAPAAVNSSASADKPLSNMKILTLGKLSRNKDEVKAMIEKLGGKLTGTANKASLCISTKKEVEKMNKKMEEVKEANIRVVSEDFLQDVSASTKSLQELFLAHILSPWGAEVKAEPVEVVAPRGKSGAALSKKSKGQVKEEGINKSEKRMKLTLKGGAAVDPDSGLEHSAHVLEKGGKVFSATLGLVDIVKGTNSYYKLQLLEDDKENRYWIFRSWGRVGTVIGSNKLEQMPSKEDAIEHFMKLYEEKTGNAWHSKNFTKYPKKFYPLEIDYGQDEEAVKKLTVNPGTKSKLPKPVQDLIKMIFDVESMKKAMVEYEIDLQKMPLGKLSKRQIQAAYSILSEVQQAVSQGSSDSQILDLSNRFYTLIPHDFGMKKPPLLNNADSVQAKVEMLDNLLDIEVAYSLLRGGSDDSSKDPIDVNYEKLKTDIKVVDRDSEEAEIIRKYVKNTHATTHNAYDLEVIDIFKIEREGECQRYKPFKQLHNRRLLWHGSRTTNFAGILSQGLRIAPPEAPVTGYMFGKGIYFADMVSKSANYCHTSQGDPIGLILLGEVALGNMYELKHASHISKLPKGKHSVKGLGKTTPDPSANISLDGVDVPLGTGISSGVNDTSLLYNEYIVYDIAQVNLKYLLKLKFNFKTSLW
Sequence of Protein cereblon/Poly [ADP-ribose] polymerase 1 (Q96SW2 whole entry): as the sequence (Q96SW2 whole entry) above
Experiment [6] has as its target von Hippel-Lindau disease tumor suppressor/Bromodomain-containing protein 9 (Homo sapiens, UniProt Q9H8M2+P40337). The experiment is described as follows: PROTAC activity at VHL/BRD9 in human HeLa cells assessed as protein degradation by Western blot analysis. In kind it is cell-based.
A short description of experiment [7]: PROTAC activity at human VHL/BRD4 in human MV4-11 cells assessed as degradation of BRD4 incubated for 16 hrs by Western blot analysis. In kind it is cell-based. The settings on record: MV4-11, 16 h.
For experiment [8], the target named is von Hippel-Lindau disease tumor suppressor/Tyrosine-protein kinase BTK. Description: PROTAC activity at VHL/BTK in human THP-1 cells assessed as induction of BTK degradation incubated for 24 hrs by immunoblotting analysis.
Experiment [9] has as its target Proprotein convertase subtilisin/kexin type 9 (Homo sapiens, UniProt Q8NBP7). The experiment is described as follows: Binding affinity to PCSK9 (unknown origin) assessed as inhibition constant.
Experiment [10] can be described thus: Downregulation of induced PCSK9 expression in HEK293 cells by Western blot analysis. In kind it is functional, cell-based. Particulars: Homo sapiens.
For experiment [11], the target named is von Hippel-Lindau disease tumor suppressor/Bromodomain-containing protein 4 (Homo sapiens, UniProt O60885+P40337). The experiment is described as follows: PROTAC activity at human VHL/BRD4 in human HeLa cells assessed as degradation of BRD4 incubated for 24 hrs by Western blot analysis. In kind it is cell-based.
Sequence of von Hippel-Lindau disease tumor suppressor/Bromodomain-containing protein 4 (P40337 whole entry, looked up, other chains not shown): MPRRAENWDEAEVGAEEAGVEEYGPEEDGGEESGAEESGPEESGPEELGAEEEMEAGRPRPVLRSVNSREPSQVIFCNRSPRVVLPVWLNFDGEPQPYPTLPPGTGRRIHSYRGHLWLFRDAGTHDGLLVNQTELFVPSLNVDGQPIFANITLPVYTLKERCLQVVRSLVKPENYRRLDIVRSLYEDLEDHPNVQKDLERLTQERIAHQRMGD
The target in experiment [12] is T1, Protein cereblon/Androgen receptor. The experiment is described as follows: PROTAC activity at CRBN/AR in human VCaP cells assessed as induction of AR degradation incubated for 24 hrs by Western blot analysis. Format: cell-based.

T1 sequence (P10275 whole entry): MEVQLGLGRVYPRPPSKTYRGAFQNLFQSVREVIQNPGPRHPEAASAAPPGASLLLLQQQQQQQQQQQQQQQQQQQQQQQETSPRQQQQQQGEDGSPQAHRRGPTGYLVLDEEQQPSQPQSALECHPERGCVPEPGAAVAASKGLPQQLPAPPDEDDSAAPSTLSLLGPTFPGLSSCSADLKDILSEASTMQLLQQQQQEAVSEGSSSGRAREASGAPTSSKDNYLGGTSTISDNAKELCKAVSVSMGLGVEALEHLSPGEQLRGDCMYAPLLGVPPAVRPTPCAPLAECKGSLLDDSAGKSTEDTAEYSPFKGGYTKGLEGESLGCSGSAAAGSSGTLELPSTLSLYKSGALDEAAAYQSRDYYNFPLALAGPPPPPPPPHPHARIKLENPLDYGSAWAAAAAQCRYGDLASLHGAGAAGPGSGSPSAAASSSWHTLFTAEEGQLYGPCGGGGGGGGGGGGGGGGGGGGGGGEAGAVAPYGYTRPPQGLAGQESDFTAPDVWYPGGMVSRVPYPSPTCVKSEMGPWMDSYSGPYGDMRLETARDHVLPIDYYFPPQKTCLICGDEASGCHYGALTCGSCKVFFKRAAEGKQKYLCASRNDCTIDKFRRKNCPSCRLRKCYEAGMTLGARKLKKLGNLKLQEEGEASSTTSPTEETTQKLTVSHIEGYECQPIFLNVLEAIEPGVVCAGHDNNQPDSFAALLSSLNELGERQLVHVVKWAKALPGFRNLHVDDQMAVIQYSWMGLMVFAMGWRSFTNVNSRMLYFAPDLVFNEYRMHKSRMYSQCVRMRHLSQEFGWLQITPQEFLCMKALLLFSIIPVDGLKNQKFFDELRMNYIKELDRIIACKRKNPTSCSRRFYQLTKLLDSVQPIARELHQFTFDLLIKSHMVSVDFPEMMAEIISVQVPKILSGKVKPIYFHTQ
T1 sequence (Q96SW2 whole entry): as the sequence (Q96SW2 whole entry) above
Sequence of von Hippel-Lindau disease tumor suppressor/Bromodomain-containing protein 9 (Q9H8M2 whole entry): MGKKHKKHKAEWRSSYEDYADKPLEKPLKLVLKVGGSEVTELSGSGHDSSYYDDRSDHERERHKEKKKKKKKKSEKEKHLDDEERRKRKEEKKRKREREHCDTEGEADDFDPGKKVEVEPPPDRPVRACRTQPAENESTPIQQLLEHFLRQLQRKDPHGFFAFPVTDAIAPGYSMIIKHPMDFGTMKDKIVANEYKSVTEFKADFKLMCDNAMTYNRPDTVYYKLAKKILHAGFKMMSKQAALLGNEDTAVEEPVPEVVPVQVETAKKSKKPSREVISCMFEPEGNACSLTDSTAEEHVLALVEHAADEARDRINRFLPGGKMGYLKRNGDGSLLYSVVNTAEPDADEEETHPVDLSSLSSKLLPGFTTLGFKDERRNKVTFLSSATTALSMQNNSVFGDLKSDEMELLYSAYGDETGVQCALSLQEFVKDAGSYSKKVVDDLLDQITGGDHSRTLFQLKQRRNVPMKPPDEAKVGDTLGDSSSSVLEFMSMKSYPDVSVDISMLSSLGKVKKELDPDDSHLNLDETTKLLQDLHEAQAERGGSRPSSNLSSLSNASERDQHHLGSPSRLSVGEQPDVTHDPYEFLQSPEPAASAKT
Sequence of von Hippel-Lindau disease tumor suppressor/Bromodomain-containing protein 9 (P40337 whole entry): as the sequence (P40337 whole entry, looked up, other chains not shown) above
Sequence of Proprotein convertase subtilisin/kexin type 9 (Q8NBP7 31-152 limits assumed): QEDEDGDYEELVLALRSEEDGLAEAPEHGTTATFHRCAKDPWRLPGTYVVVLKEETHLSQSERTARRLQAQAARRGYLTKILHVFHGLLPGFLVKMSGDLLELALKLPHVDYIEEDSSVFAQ
Sequence of Proprotein convertase subtilisin/kexin type 9 (Q8NBP7 153-692 limits assumed): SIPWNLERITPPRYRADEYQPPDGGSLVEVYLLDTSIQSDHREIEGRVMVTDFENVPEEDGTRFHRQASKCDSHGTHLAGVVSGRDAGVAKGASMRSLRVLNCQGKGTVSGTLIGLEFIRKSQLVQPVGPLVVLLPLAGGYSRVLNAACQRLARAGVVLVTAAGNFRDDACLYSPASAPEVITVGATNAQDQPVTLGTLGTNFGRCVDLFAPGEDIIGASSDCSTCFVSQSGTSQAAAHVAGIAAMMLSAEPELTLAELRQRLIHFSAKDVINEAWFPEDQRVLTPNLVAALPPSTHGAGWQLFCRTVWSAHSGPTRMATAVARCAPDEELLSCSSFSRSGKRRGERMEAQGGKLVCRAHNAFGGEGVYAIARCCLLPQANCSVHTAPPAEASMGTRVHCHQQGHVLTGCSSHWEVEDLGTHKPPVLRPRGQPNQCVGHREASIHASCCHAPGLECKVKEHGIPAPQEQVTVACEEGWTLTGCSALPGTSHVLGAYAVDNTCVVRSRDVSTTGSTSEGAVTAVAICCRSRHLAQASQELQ

In the case of `Cc1ncsc1-c1ccc(CNC(=O)[C@@H]2C[C@@H](O)CN2C(=O)[C@@H](NC(=O)C2(F)CC2)C(C)(C)C)c(OCCOc2ccc(CN3CCN(c4cc(-c5ccccc5O)nnc4N)CC3)cc2)c1`, the DC50 in [1] was 6 nM.

Turning to `COc1cc(/C=C/C(=O)N2CCC=CC2=O)cc(OC)c1OCCN1CCN(C(=O)CN2CCC(C(=O)Nc3ncc(SCc4ncc(C(C)(C)C)o4)s3)CC2)CC1`, in experiment [2], the DC50 is 9 nM.

Turning to `CC1(C)[C@H](NC(=O)c2ccc(OCC(=O)NCCCOCCOCCOCCCN(C(=O)CCl)C(C(=O)NCc3ccccc3)c3ccc(Cl)c(Cl)c3)cc2)C(C)(C)[C@H]1Oc1ccc(C#N)c(Cl)c1` (some centres undefined), in experiment [3], the DC50 was under 10000 nM.

Take `COC(=O)C[C@H]1[C@]2(C)C3=C(C)[C@H](c4ccoc4-c4ccc(C(=O)NCCCNC(=O)C[C@@H]5N=C(c6ccc(Cl)cc6)c6c(sc(C)c6C)-n6c(C)nnc65)cc4)C[C@H]3O[C@@H]2[C@@H]2OC(=O)[C@]3(C)C=CC(=O)[C@@]1(C)[C@@H]23`: in experiment [4], the DC50 turned out to be 36000 nM.

For the molecule `Cc1sc2c(c1C)C(c1ccc(Cl)cc1)=N[C@@H](CC(=O)NCCCCOc1ccc(C3CC(c4ccc(Br)cc4)=NN3C(=O)CCl)cc1)c1nnc(C)n1-2` (some centres undefined), the half-maximal degradation concentration (DC50) in experiment [4] was under 10000 nM.

In the case of `Cc1sc2c(c1C)C(c1ccc(Cl)cc1)=N[C@@H](CC(=O)NCCCCOc1ccc(Oc3ccc(N(Cc4ccccc4)C(=O)CCl)cc3)cc1)c1nnc(C)n1-2`, the DC50 in [4] is under 10000 nM.

As for `COc1ccc(C2=N[C@H](c3ccc(Cl)cc3)[C@H](c3ccc(Cl)cc3)N2C(=O)N2CCN(CC(=O)NCCOCCOCCOCCOCCn3cc(-c4ccc(-n5cc6cccc(C(N)=O)c6n5)cc4)nn3)C(=O)C2)c(OC(C)C)c1`, the half-maximal degradation concentration (DC50) in [5] is under 10000 nM.

In the case of `Cc1ncsc1-c1ccc([C@H](CC[C@H](C)CCN2CCC(c3ccc4c(c3)n(C3CCCC3)c3nc(=O)c5c(Br)cccc5n43)CC2)NC(=O)[C@@H]2C[C@@H](O)CN2C(=O)[C@@H](NC(=O)C2(F)CC2)C(C)(C)C)cc1`, in [1], the half-maximal degradation concentration (DC50) is 1 nM.

Take `COc1cc(-c2cn(C)c(=O)c3cnccc23)c(OC)cc1CN1CCC(OCCCCCC(=O)N2CCN(c3ccc4c(NCCN)nc(C5(c6ccc(Cl)cc6)CCCCC5)nc4c3)CC2)CC1`: the 50% degradation concentration (DC50) in [6] turned out to be 90 nM.

In the case of `Cc1sc2c(c1C)C(c1ccc(Cl)cc1)=N[C@H](CC(=O)NCCCn1cc(CNC(=O)c3ccc(S(=O)(=O)N(CC#N)C(=O)CC45CC6CC(CC(C6)C4)C5)cc3)nn1)c1nnc(C)n1-2`, the 50% degradation concentration (DC50) in experiment [7] was determined as 3000 nM.

`CN[C@@H](C)C(=O)N[C@H](C(=O)N1Cc2cc(OCCOCCOCCOCCOCCOC(=O)N3CCC[C@H](n4nc(-c5ccc(Oc6ccc(F)cc6F)cc5)c(C(N)=O)c4N)C3)ccc2C[C@@H]1C(=O)NC1CCCc2ccccc21)C(C)(C)C` (some centres undefined): the DC50 in experiment [8] turned out to be 182 nM.

Turning to `CCOC(=O)C[C@@H](c1ccc(C)c(CN2C[C@@H](C)Oc3ccccc3S2(=O)=O)c1)c1cc(OCCNC(=O)CNC(=O)C[C@@H]2N=C(c3ccc(Cl)cc3)c3c(sc(C)c3C)-n3c(C)nnc32)c2c(c1)nnn2C`, in experiment [2], the DC50 is under 500 nM.

With `CC(C)(C)OC(=O)N=C(NCCC[C@H](NC(=O)OC(C)(C)C)C(=O)NCCOCCOc1cc2c(cc1Oc1ccc(-c3ccc(C(=O)O)cc3)c(F)c1)[C@@](C)(CC(=O)Nc1nccs1)NCC2)NC(=O)OC(C)(C)C`, the Ki in experiment [9] stood at 107 nM. Also, half-maximal inhibition in experiment [10] (IC50) required 3400 nM.

Take `Cc1ncsc1-c1ccc([C@H](C)NC(=O)[C@@H]2C[C@@H](O)CN2C(=O)[C@H](c2cc(N3CCC(CN4CCC(OC5CC(Oc6cc(N7[C@H]8CC[C@H]7CN(c7cc(-c9ccccc9O)nnc7N)C8)ccn6)C5)CC4)CC3)no2)C(C)C)cc1` (some centres undefined): in experiment [1], the half-maximal degradation concentration (DC50) is 0.03 nM.

Regarding `Cc1sc2c(c1C)C(c1ccc(Cl)cc1)=N[C@@H](CC(=O)NCCCCCCCCCCNC(=O)[C@@]13CCC(C)(C)C[C@@H]1[C@@H]1C(=O)C=C4[C@]5(C)C=C(C#N)C(=O)C(C)(C)[C@H]5CC[C@]4(C)[C@@]1(C)CC3)c1nnc(C)n1-2`, the DC50 in [2] is under 200 nM.

For `Cc1sc2c(c1C)C(c1ccc(Cl)cc1)=NC(CC(=O)NCCOCCOCCNC(=O)c1cccc(S(=O)(=O)Nc3ccc(C)c4c(C#N)c[nH]c34)c1)c1nnc(C)n1-2` (centres undefined), the half-maximal degradation concentration (DC50) in experiment [11] was 10800 nM.

On to `Cc1sc2c(c1C)C(c1ccc(Cl)cc1)=N[C@@H](CC(=O)NCCCOCCOCCOCCCNC(=O)COc1c(Br)cc(/C=C3\C(=O)Nc4ccc(I)cc43)cc1Br)c1nnc(C)n1-2` (stereo in doubt), for which the 50% degradation concentration (DC50) in experiment [7] turned out to be 900 nM.

For the molecule `COc1cc(O[C@H]2C(C)(C)[C@H](NC(=O)c3ccc(N4CCC(CN5CCN(c6ccc(C(=O)N[C@H]7CCC(=O)NC7=O)c(F)c6)CC5)CC4)cc3)C2(C)C)ccc1C#N` [LUXDEGALUTAMIDE], the DC50 in [12] is under 1 nM.

The DC50 is the concentration giving 50% degradation. For orientation: Ki means the equilibrium dissociation constant of an inhibitor or competing ligand from its target. The term IC50 denotes the concentration needed to halve the response being measured. Read a low IC50 as inhibition by little substance.
